These results are taken from ChEMBL document CHEMBL5329155, “Synthesis and pharmacological evaluation of 1,3-diaryl substituted pyrazole based (thio)urea derivatives as potent antimicrobial agents against multi-drug resistant Staphylococcus aureus and Mycobacterium tuberculosis” (RSC Med Chem, 2023).

Data set [1] deals with Staphylococcus aureus. Put plainly: Antibacterial activity against methicillin/ceftriaxone/meropenem/gentamycin/vancomycin/teicoplanin resistant Staphylococcus aureus VRS 1 assessed as reduction in bacterial growth incubated for 18 to 24 hrs by broth dilution method. The format is functional. Conditions: time 18-24 hrs.
Data set [2] relates to Staphylococcus aureus. Put plainly: Antibacterial activity against methicillin/ceftriaxone/meropenem/vancomycin/teicoplanin resistant Staphylococcus aureus VRS 4 assessed as reduction in bacterial growth incubated for 18 to 24 hrs by broth dilution method. The format is functional. Conditions: time 18-24 hrs.
The test system of data set [3] is Staphylococcus aureus. Put plainly: Antibacterial activity against methicillin/ceftriaxone/meropenem/vancomycin/teicoplanin resistant Staphylococcus aureus VRS 12 assessed as reduction in bacterial growth incubated for 18 to 24 hrs by broth dilution method. The format is functional. Conditions: time 18-24 hrs.
Data set [4] concerns Mycobacterium tuberculosis. Put plainly: Antimycobacterial activity against Mycobacterium tuberculosis H37Rv assessed as reduction in bacterial growth. The format is functional.
In data set [5] the test system is Staphylococcus aureus. Put plainly: Antibacterial activity against Staphylococcus aureus ATCC 29213 assessed as inhibition of bacterial growth measured for 18 to 24 hrs by broth dilution method. The format is functional. The note with it: time 18-24 hrs.
For data set [6], the system named is Mycobacterium tuberculosis. Put plainly: Antimycobacterial activity against Mycobacterium tuberculosis H37Rv ATCC 27294 assessed as inhibition of bacterial growth incubated for 18 to 24 hrs by broth dilution method. The format is functional.
Data set [7] has as its system Mycolicibacterium fortuitum. Put plainly: Antimycobacterial activity against Mycobacterium fortuitum assessed as reduction in bacterial growth incubated for 18 to 24 hrs by broth dilution method. The format is functional. The note with it: time 18-24 hrs.
For data set [8], the system named is Mycobacteroides chelonae. Put plainly: Antibacterial activity against Mycobacteroides chelonae assessed as reduction in bacterial growth incubated for 18 to 24 hrs by broth dilution method. The format is functional. Conditions: time 18-24 hrs.
Data set [9] can be described thus: Cytotoxicity against African green monkey Vero cells assessed as reduction in cell viability incubated for 72 hrs by MTT assay. The format is toxicity, cell-based. The note with it: chlorocebus sabaeus.
Data set [10] is described as follows: Selectivity index, ratio of CC50 for cytotoxicity against African green monkey Vero cells assessed as reduction in cell viability to MIC for antibacterial activity against Mycobacterium tuberculosis H37Rv ATCC 27294 assessed as inhibition of bacterial growth. The format is toxicity, cell-based. Conditions: read-out: Selectivity Index.
In data set [11] the target is DNA gyrase (Escherichia coli, UniProt P0AES4+P0AES6). Put plainly: Inhibition of Escherichia coli DNA gyrase. The format is protein-complex assay.
For data set [12], the system named is Mycobacterium tuberculosis. Put plainly: Antimycobacterial activity against isoniazid-resisitant Mycobacterium tuberculosis ATCC 35822 assessed as inhibition of bacterial growth incubated for 18 to 24 hrs by broth dilution method. The format is functional. Conditions: time 18-24 hrs.
Data set [13] has as its system Mycobacterium tuberculosis. Put plainly: Antimycobacterial activity against ethambutol-resisitant Mycobacterium tuberculosis ATCC 35837 assessed as inhibition of bacterial growth incubated for 18 to 24 hrs by broth dilution method. The format is functional. The note with it: time 18-24 hrs.
Data set [14] deals with Mycobacterium tuberculosis. Put plainly: Antimycobacterial activity against streptomycin-resisitant Mycobacterium tuberculosis ATCC 35820 assessed as inhibition of bacterial growth incubated for 18 to 24 hrs by broth dilution method. The format is functional. The note with it: time 18-24 hrs.
The test system of data set [15] is Mycobacterium tuberculosis. Put plainly: Antimycobacterial activity against rifampicin-resisitant Mycobacterium tuberculosis ATCC 35838 assessed as inhibition of bacterial growth incubated for 18 to 24 hrs by broth dilution method. The format is functional. Conditions: time 18-24 hrs.
Data set [16] relates to Staphylococcus aureus. Put plainly: Antibacterial activity against methicillin-susceptible Staphylococcus aureus assessed as reduction in bacterial growth incubated for 18 to 24 hrs by broth dilution method. The format is functional. The note with it: time 18-24 hrs.
Data set [17] deals with Staphylococcus aureus. Put plainly: Antibacterial activity against methicillin/ceftriaxone/meropenem/gentamycin/linezolid resistant Staphylococcus aureus NRS 100 assessed as reduction in bacterial growth incubated for 18 to 24 hrs by broth dilution method. The format is functional. Conditions: time 18-24 hrs.
Data set [18] deals with Staphylococcus aureus. Put plainly: Antibacterial activity against methicillin/ceftriaxone/meropenem/gentamycin/linezolid resistant Staphylococcus aureus NRS 119 assessed as reduction in bacterial growth incubated for 18 to 24 hrs by broth dilution method. Conditions: time 18-24 hrs. The format is functional.
Data set [19] relates to Staphylococcus aureus. Put plainly: Antibacterial activity against methicillin/ceftriaxone/meropenem resistant Staphylococcus aureus NRS 129 assessed as reduction in bacterial growth incubated for 18 to 24 hrs by broth dilution method. The format is functional. The note with it: time 18-24 hrs.
In data set [20] the test system is Staphylococcus aureus. Put plainly: Antibacterial activity against methicillin/ceftriaxone/meropenem resistant Staphylococcus aureus NRS 186 assessed as reduction in bacterial growth incubated for 18 to 24 hrs by broth dilution method. The format is functional. Conditions: time 18-24 hrs.
Data set [21] relates to Staphylococcus aureus. Put plainly: Antibacterial activity against methicillin/ceftriaxone/meropenem resistant Staphylococcus aureus NRS 191 assessed as reduction in bacterial growth incubated for 18 to 24 hrs by broth dilution method. The format is functional. The note with it: time 18-24 hrs.
Data set [22] deals with Staphylococcus aureus. Put plainly: Antibacterial activity against methicillin/ceftriaxone/meropenem resistant Staphylococcus aureus NRS 192 assessed as reduction in bacterial growth incubated for 18 to 24 hrs by broth dilution method. The format is functional. Conditions: time 18-24 hrs.
The subject of data set [23] is Staphylococcus aureus. Put plainly: Antibacterial activity against methicillin/ceftriaxone/meropenem resistant Staphylococcus aureus NRS 193 assessed as reduction in bacterial growth incubated for 18 to 24 hrs by broth dilution method. The format is functional. The note with it: time 18-24 hrs.
The test system of data set [24] is Staphylococcus aureus. Put plainly: Antibacterial activity against methicillin/ceftriaxone resistant Staphylococcus aureus NRS 194 assessed as reduction in bacterial growth incubated for 18 to 24 hrs by broth dilution method. The format is functional. Conditions: time 18-24 hrs.
Data set [25] relates to Staphylococcus aureus. Put plainly: Antibacterial activity against methicillin/ceftriaxone/meropenem resistant Staphylococcus aureus NRS 198 assessed as reduction in bacterial growth incubated for 18 to 24 hrs by broth dilution method. The format is functional. Conditions: time 18-24 hrs.

≈ marks a conversion by molar mass, not a printed value.

As to `CN[C@H](CC(C)C)C(=O)N[C@H]1C(=O)N[C@@H](CC(N)=O)C(=O)N[C@H]2C(=O)N[C@H]3C(=O)N[C@H](C(=O)N[C@H](C(=O)O)c4cc(O)cc(O)c4-c4cc3ccc4O)[C@H](O)c3ccc(c(Cl)c3)Oc3cc2cc(c3O[C@@H]2O[C@H](CO)[C@@H](O)[C@H](O)[C@H]2O[C@H]2C[C@](C)(N)[C@H](O)[C@H](C)O2)Oc2ccc(cc2Cl)[C@H]1O` [VANCOMYCIN], the MIC in data set [1], in data set [2] and in data set [3] was more than 64 µg/mL in each case.
For `O=C(Nc1ccc(-n2ccc(-c3cc4ccccc4o3)n2)cc1)c1cc([N+](=O)[O-])cc([N+](=O)[O-])c1`, the MIC in [4] came to 0.03 µg/mL (≈ 0.0639 µM).
Turning to `COc1cc(-c2ccn(-c3ccc(NC(=O)NCc4ccccc4)cc3)n2)cc(OC)c1OC`, the minimum inhibitory concentration (MIC) is more than 64 µg/mL in data set [5], 0.5 µg/mL (≈ 1.09 µM) in data set [6], 0.5 µg/mL (≈ 1.09 µM) in [7] and 1 µg/mL (≈ 2.18 µM) in data set [8]. Besides, the CC50 at 72 h in data set [9] is less than 5 µg/mL. Also, the selectivity ratio in data set [10] was less than 10.
`COc1ccc(Nc2n[nH]c(/N=C/c3ccc(N4CCCCC4)cc3)c2C(N)=O)cc1` yielded an IC50 in data set [11] of 7.69 mM.
On to `CO[C@H]1/C=C/O[C@@]2(C)Oc3c(C)c(O)c4c(O)c(c(/C=N/N5CCN(C)CC5)c(O)c4c3C2=O)NC(=O)/C(C)=C\C=C\[C@H](C)[C@H](O)[C@@H](C)[C@@H](O)[C@@H](C)[C@H](OC(C)=O)[C@@H]1C` [RIFAMPIN], for which the MIC in data set [6] came out at 0.06 µg/mL (≈ 0.0729 µM); in data set [12], 0.03 µg/mL (≈ 0.0365 µM); in data set [13], 0.03 µg/mL (≈ 0.0365 µM); in [14], 0.03 µg/mL (≈ 0.0365 µM); in data set [15], 64 µg/mL (≈ 77.8 µM).
Regarding `NNC(=O)c1ccncc1` [ISONIAZID], the minimal inhibitory concentration (MIC) in data set [6] was 0.03 µg/mL (≈ 0.219 µM); in data set [12], more than 64 µg/mL; in data set [13], 0.03 µg/mL (≈ 0.219 µM); in [14], 0.03 µg/mL (≈ 0.219 µM); in [15], 0.03 µg/mL (≈ 0.219 µM).
In the case of `C[C@H]1COc2c(N3CCN(C)CC3)c(F)cc3c(=O)c(C(=O)O)cn1c23` [LEVOFLOXACIN ANHYDROUS], the MIC in data set [5] was 0.25 µg/mL (≈ 0.692 µM); in data set [6], 0.25 µg/mL (≈ 0.692 µM); in data set [16], 0.25 µg/mL (≈ 0.692 µM); in data set [17], 0.25 µg/mL (≈ 0.692 µM); in data set [18], 16 µg/mL (≈ 44.3 µM); in [19], 0.25 µg/mL (≈ 0.692 µM). The MIC was 4 µg/mL (≈ 11.1 µM) in data set [20]; 16 µg/mL (≈ 44.3 µM) in data set [21]; 8 µg/mL (≈ 22.1 µM) in data set [22]; 32 µg/mL (≈ 88.6 µM) in [23]; 0.25 µg/mL (≈ 0.692 µM) in [24]; 32 µg/mL (≈ 88.6 µM) in data set [25]. Further, the MIC in data set [1], in data set [2] and in data set [3] was 32 µg/mL (≈ 88.6 µM) throughout.
Consider `C[C@@H](O)[C@H]1C(=O)N2C(C(=O)O)=C(S[C@@H]3CN[C@H](C(=O)N(C)C)C3)[C@H](C)[C@H]12` [MEROPENEM], for which the MIC in data set [16] was found to be 0.125 µg/mL (≈ 0.326 µM); in [17] it was 64 µg/mL (≈ 167 µM); in [18], 64 µg/mL (≈ 167 µM); in [19] it was 8 µg/mL (≈ 20.9 µM); in data set [20], 8 µg/mL (≈ 20.9 µM); in [21], 64 µg/mL (≈ 167 µM). In addition, the minimal inhibitory concentration (MIC) in data set [22] turned out to be 16 µg/mL (≈ 41.7 µM); in [23], 64 µg/mL (≈ 167 µM); in [24] it was 2 µg/mL (≈ 5.22 µM); in [25], 64 µg/mL (≈ 167 µM); in [1], 64 µg/mL (≈ 167 µM); in data set [2], 64 µg/mL (≈ 167 µM). Besides, in data set [3], the MIC stood at 2 µg/mL (≈ 5.22 µM).
